{
  "source": "ChEMBL document CHEMBL5465560",
  "about": "“Selectivity Literature for EUbOPEN Chemogenomic Library” (2024)",
  "key": {"[1]": {"target": "Tyrosine-protein kinase Blk (Homo sapiens) (UniProt P51451)", "sequence (P51451 2-505 limits assumed)": "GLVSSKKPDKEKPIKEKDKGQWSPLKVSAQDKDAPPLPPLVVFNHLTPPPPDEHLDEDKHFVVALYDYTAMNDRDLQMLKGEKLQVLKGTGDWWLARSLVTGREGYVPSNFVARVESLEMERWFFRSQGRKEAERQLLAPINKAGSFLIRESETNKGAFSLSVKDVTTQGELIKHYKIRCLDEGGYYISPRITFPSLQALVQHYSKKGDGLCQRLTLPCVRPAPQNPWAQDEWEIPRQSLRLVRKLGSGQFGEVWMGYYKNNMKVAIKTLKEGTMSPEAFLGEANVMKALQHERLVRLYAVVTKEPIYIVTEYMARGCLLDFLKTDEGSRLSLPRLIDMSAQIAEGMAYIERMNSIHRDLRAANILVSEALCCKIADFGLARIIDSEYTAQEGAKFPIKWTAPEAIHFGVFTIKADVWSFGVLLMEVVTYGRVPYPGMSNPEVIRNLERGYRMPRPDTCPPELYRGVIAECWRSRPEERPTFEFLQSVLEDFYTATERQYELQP", "assay": "Selectivity interaction (KinomeScan (DiscoverX)) EUB0001079a BLK", "conditions": "at 1 µM"}, "[2]": {"target": "T1, Serine/threonine-protein kinase BRSK1 (Homo sapiens) (UniProt Q8TDC3)", "T1 sequence (whole entry)": "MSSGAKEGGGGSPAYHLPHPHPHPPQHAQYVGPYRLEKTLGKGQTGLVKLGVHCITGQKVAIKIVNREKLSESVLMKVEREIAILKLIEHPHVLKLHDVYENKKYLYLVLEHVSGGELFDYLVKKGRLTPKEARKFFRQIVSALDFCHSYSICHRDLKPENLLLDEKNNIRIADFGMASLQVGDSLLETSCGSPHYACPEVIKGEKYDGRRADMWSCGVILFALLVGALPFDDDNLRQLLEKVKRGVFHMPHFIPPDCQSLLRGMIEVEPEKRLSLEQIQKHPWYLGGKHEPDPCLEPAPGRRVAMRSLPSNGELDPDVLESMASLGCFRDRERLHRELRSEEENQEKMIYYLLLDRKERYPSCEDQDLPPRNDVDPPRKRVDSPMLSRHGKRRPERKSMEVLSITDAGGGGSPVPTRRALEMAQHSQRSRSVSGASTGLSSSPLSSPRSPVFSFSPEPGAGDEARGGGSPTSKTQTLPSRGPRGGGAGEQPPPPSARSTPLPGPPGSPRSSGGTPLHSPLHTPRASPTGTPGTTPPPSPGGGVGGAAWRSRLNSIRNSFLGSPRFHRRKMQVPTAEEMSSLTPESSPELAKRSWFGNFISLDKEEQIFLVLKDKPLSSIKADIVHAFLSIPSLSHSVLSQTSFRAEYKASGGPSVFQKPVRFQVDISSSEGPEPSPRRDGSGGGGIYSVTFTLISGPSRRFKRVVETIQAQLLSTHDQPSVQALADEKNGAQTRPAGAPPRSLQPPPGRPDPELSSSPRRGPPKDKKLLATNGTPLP", "assay": "Selectivity interaction (KinomeScan (DiscoverX)) EUB0001079a BRSK1", "conditions": "at 1 µM"}, "[3]": {"target": "T2, Serine/threonine-protein kinase Nek5 (Homo sapiens) (UniProt Q6P3R8)", "T2 sequence (whole entry)": "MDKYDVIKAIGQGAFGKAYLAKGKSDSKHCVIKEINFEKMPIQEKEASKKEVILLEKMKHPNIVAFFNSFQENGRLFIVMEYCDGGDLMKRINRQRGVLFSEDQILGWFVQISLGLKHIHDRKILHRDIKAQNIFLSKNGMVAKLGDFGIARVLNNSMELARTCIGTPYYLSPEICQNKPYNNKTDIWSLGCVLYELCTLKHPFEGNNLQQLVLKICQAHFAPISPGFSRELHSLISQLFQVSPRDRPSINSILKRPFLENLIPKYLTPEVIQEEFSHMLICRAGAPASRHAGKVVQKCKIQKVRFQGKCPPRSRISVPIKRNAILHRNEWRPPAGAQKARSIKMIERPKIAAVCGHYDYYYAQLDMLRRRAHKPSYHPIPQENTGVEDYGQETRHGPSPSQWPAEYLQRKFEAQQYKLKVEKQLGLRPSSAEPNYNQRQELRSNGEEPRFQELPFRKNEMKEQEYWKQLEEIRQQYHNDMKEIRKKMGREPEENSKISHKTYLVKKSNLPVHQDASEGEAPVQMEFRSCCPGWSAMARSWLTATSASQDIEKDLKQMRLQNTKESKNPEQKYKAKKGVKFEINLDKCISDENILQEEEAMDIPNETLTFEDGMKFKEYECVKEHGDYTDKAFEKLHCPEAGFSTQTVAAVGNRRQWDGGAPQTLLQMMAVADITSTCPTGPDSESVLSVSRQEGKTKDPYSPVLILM", "assay": "Selectivity interaction (KinomeScan (DiscoverX)) EUB0000666a NEK5", "conditions": "at 10 µM"}, "[4]": {"target": "Dual specificity mitogen-activated protein kinase kinase 2 (Homo sapiens) (UniProt P36507)", "sequence (P36507 whole entry)": "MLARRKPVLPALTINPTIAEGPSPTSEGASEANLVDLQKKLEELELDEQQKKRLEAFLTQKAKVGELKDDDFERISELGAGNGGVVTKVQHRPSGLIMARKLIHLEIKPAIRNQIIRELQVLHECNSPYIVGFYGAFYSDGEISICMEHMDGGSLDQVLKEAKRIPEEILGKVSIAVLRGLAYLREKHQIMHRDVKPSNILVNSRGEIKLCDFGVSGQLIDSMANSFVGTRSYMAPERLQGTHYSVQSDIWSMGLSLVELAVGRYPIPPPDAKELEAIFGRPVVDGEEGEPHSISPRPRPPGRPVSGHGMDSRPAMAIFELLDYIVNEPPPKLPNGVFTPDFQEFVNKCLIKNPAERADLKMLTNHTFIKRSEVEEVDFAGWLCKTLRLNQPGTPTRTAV", "assay": "Selectivity interaction (LanthaScreen Eu Kinase Binding Assay) EUB0001632a MAP2K2", "conditions": "at 10 µM"}, "[5]": {"target": "T3, Membrane-associated tyrosine- and threonine-specific cdc2-inhibitory kinase (Homo sapiens) (UniProt Q99640)", "T3 sequence (whole entry)": "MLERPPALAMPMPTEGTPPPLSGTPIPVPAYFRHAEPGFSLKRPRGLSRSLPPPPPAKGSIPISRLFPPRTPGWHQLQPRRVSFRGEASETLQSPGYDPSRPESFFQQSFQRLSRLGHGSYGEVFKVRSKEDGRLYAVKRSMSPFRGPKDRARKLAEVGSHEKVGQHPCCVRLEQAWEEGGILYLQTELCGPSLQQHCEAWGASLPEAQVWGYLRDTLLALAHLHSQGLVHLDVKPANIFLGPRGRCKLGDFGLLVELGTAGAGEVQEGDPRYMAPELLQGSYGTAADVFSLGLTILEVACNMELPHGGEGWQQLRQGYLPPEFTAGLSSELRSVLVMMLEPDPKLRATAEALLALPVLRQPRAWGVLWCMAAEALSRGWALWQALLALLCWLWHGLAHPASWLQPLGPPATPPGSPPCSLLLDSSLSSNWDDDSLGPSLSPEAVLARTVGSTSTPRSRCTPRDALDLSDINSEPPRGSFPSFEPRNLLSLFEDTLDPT", "assay": "Selectivity interaction (LanthaScreen Eu Kinase Binding Assay) EUB0001632a PKMYT1", "conditions": "at 10 µM"}, "SRSF protein kinase 1": {"target": "SRSF protein kinase 1 (Homo sapiens, UniProt Q96SB4)", "sequence (Q96SB4 whole entry)": "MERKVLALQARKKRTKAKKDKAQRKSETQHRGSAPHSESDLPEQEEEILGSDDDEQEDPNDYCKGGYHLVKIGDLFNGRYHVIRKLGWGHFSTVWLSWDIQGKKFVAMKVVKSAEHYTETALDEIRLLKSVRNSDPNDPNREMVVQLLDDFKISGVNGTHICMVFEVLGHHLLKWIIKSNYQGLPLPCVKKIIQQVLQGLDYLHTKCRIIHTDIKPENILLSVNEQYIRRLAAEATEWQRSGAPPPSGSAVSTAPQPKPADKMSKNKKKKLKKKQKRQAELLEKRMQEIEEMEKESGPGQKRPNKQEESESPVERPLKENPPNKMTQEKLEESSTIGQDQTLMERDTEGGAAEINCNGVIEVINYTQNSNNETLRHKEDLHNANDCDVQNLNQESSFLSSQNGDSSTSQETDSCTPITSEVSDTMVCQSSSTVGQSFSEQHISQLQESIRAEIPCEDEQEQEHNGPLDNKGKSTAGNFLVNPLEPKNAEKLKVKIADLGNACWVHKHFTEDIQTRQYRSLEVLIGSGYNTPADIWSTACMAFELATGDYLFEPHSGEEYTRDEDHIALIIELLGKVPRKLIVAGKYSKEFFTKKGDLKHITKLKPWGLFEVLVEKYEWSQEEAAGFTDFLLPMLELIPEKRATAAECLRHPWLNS", "assay": "Selectivity interaction (ActivX KiNativ screen (kinase selectivity in THP-1 cell lysates)) EUB0000639a SRPK1", "assay_type": "subcellular", "conditions": "lysate, at 0.04 µM"}, "[6]": {"target": "T4, Mitogen-activated protein kinase 12 (Homo sapiens) (UniProt P53778)", "T4 sequence (whole entry)": "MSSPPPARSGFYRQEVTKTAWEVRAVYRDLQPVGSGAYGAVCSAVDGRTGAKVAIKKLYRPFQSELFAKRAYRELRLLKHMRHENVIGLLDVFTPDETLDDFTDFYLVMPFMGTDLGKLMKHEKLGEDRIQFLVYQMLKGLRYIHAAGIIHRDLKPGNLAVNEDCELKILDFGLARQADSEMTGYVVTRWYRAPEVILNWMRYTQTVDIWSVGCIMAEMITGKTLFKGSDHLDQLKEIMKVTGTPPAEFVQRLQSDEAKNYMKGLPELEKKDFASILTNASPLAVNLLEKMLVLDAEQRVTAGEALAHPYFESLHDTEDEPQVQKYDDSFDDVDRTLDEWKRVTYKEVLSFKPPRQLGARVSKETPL", "assay": "Selectivity interaction (KinomeScan (DiscoverX)) EUB0000045b MAPK12"}},
  "data": [
    {"compound": "Nc1cnc(N2CCc3cc(S(=O)(=O)Nc4c(F)cc(Cl)cc4F)cc(N4CCCC4=O)c32)nc1", "note": "[TP-020n]", "values": [
      {"measurement": "% of control", "setting": "[1]", "value": 100, "unit": "%"},
      {"measurement": "% of control", "setting": "[2]", "value": 100, "unit": "%"}
    ]},
    {"compound": "O=C(NOC[C@H](O)CO)c1ccc(F)c(F)c1Nc1ccc(I)cc1F", "values": [
      {"measurement": "% of control", "setting": "[3]", "value": 78, "unit": "%"}
    ]},
    {"compound": "Cn1cc(-n2cnc3c(NCc4nc5cc(Cl)c(Cl)cc5[nH]4)nc(N4CCOCC4)nc32)cn1", "values": [
      {"measurement": "% of inhibition", "setting": "[4]", "value": -1.07, "unit": "%"},
      {"measurement": "% of inhibition", "setting": "[5]", "value": -3.65, "unit": "%"}
    ]},
    {"compound": "CC[C@@H]1[C@H](F)C(=O)N[C@@H]1COc1nccc2cc(C(N)=O)c(OC)cc12", "note": "[ZIMLOVISERTIB]", "values": [
      {"measurement": "% of inhibition", "setting": "SRSF protein kinase 1", "value": 6, "unit": "%"}
    ]},
    {"compound": "C=CC(=O)Nc1cc(-n2c(=O)ccc3cnc4ccc(-c5ccc(NS(C)(=O)=O)cc5)cc4c32)ccc1C", "values": [
      {"measurement": "% of control", "setting": "[6]; at 1 µM", "value": 72, "unit": "%"},
      {"measurement": "% of control", "setting": "[6]; at 10 µM", "value": 79, "unit": "%"}
    ]}
  ]
}
